Measurements as given in ChEMBL document CHEMBL1201862, “PubChem BioAssay data set” (2004).
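Where inhibition never reached the appropriate level, the endpoint shown equals the highest concentration tested. Otherwise, values were interpolated linearly from a five-concentration, 48-hour dose response in 96-well plates. At the GI50, growth is halved.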 The source made the active and inactive calls. No stated cut-off is given here; in the data, active = GI50 up to about 1.1 µM and inactive = higher.

Experiments:
Experiment in all cases: growth of human tumour cells (NCI), 48 h
A498 = system: A498
KM12 = system: KM12
SR = system: SR
A549 = system: A549
NCI-H522 = system: NCI-H522
U-251 = system: U-251
NCI-H23 = system: NCI-H23
IGROV-1 = system: IGROV-1
RPMI-8226 = system: RPMI-8226
UO-31 = system: UO-31
Malme-3M = system: Malme-3M
OVCAR-3 = system: OVCAR-3
HL-60 = system: HL-60
ACHN = system: ACHN
SK-MEL-2 = system: SK-MEL-2
TK-10 = system: TK-10
DMS-273 = system: DMS-273
HCC 2998 = system: HCC 2998
CCRF-CEM = system: CCRF-CEM
SNB-78 = system: SNB-78

Measured: GI50

O=C1C=C(Nc2ccc(Cl)cc2Cl)c2ccccc2C1=O
inactive: A498 > 100 µM | KM12 66.5 µM | SR 29.4 µM | A549 28.5 µM | NCI-H522 29.8 µM | U-251 29.4 µM | NCI-H23 21.7 µM | IGROV-1 50.9 µM | RPMI-8226 46.5 µM | UO-31 43.1 µM | Malme-3M 24.9 µM | OVCAR-3 28.4 µM | HL-60 28.7 µM | ACHN 36.2 µM | SK-MEL-2 23.6 µM | TK-10 24.7 µM | DMS-273 27.4 µM | HCC 2998 54.6 µM | CCRF-CEM 30.8 µM | SNB-78 44.1 µM

N#CCCN(c1ccc(/C=N/c2ccc(C(=O)O)cc2)cc1)S(=O)(=O)c1ccccc1
inactive: A498 > 100 µM | KM12 > 100 µM | SR > 100 µM | A549 > 100 µM | NCI-H522 > 100 µM | U-251 > 100 µM | NCI-H23 > 100 µM | IGROV-1 > 100 µM | RPMI-8226 > 100 µM | UO-31 > 100 µM | Malme-3M > 100 µM | OVCAR-3 > 100 µM | HL-60 41.4 µM | ACHN > 100 µM | SK-MEL-2 > 100 µM | TK-10 > 100 µM | DMS-273 > 100 µM | HCC 2998 > 100 µM | CCRF-CEM > 100 µM | SNB-78 > 100 µM

CC(=O)C1=NN(c2ccccc2)C2(S1)SC(c1ccccc1)(c1ccccc1)c1ccccc12 (stereo not given)
inactive: A498 89.7 µM | KM12 74.5 µM | SR 20.4 µM | A549 36.7 µM | NCI-H522 22.9 µM | U-251 44.7 µM | NCI-H23 27.2 µM | IGROV-1 33.1 µM | RPMI-8226 44.1 µM | UO-31 > 100 µM | Malme-3M 37.4 µM | OVCAR-3 51.3 µM | HL-60 19.9 µM | ACHN 42.3 µM | SK-MEL-2 27 µM | TK-10 63.7 µM | DMS-273 17.6 µM | HCC 2998 > 100 µM | CCRF-CEM 49.3 µM | SNB-78 30.8 µM

CC(=O)Nc1ccc(S(=O)(=O)N/N=C(\C)CN2C(=O)c3ccccc3C2=O)cc1
inactive: A498 > 100 µM | KM12 > 100 µM | SR > 100 µM | A549 > 100 µM | NCI-H522 > 100 µM | U-251 > 100 µM | NCI-H23 > 100 µM | IGROV-1 > 100 µM | RPMI-8226 > 100 µM | UO-31 > 100 µM | Malme-3M > 100 µM | OVCAR-3 > 100 µM | HL-60 > 100 µM | ACHN > 100 µM | SK-MEL-2 > 100 µM | TK-10 > 100 µM | DMS-273 > 100 µM | HCC 2998 > 100 µM | CCRF-CEM > 100 µM | SNB-78 > 100 µM
